Measured values: patent US20190262300A1, “COMPOSITION FOR PREVENTING OR TREATING PSORIASIS CONTAINING MONOACETYL DIACYLGLYCEROL COMPOUND” (ENZYCHEM LIFESCIENCES CORPORATION, priority 2016, published 2019)

Key:
Format in all cases: in vivo, Balb/c mice
[1] = test system: psoriasis-induced mouse models (IMQ); test: H&E histology of back skin (IMQ-induced chronic inflammatory skin disorder); details: PLAG 250 mg/kg/day oral day 0 to day 4 with Aldara cream 40 mg/day
Source text: (§1) In order to confirm the preventive and therapeutic effects of psoriasis by 1-palmitoyl-2-linoleoyl-3-acetylglycerol (EC-18 or PLAG), imiquimod (hereinafter, referred to as IMQ), which is commonly used to induce skin inflammation i.e., psoriasis, such as infiltration of immune cells, epidermal hyperplasia, etc., was used as a ligand for TLR7 and TLR8 to carry out an experiment using psoriasis-induced mouse models. As an experiment model, 6 to 8-week-old female Balb/c-based mice (KOATECH, Pyeongtaek, Korea) were maintained under a specific pathogen free (SPF) environment and used. PLAG (ENZYCHEM LIFESCIENCES, Korea) was prepared before in vivo or in vitro treatment. Also, statistical analysis was performed using a paired t-test.
(§2) Mice were randomly divided into three groups: control group, psoriasis-induced group, and PLAG group. As the IMQ, Aldara cream (3M Health Care Limited, UK) containing 5% of IMQ was used.
(§3) For 5 days from day 0 to day 4, the control group was treated with vaseline (Unilever, UK) and PBS, the psoriasis-induced group was treated with Aldara cream and PBS, and the PLAG group was treated with Aldara cream and PLAG. Vaseline and Aldara cream were applied to the back of mice at a dose of 40 mg/day, and PBS and PLAG were orally administered at a dose of 250 mg/kg/day. On Day 5, which was the 6th day, the mice were sacrificed.
The thickness of the back skin of the mice of Example 1 was stained with the following H&E (Hematoxylin and Eosin) staining method, and histologically observed and evaluated under an optical microscope (Olympus, Tokyo, Japan) 5. The H&E staining method is as follows:
The back skin tissue of the mice was fixed in a 10% buffered formalin solution for 24 hours, embedded in paraffin and cut into 4 μm-thick sections. After removing paraffin and rehydrating the sections, the sections were stained with hematoxylin and eosin.

[2] = test system: psoriasis-induced mouse models (IMQ); test: Size and weight of spleen in IMQ-induced psoriasis mice; details: PLAG 250 mg/kg/day oral day 0 to day 4 with Aldara cream 40 mg/day, vs control group
Source text: as §1, §2
For 5 days from day 0 to day 4, the control group was treated with vaseline (Unilever, UK) and PBS, the psoriasis-induced group was treated with Aldara cream and PBS, and the PLAG group was treated with Aldara cream and PLAG. […]
The size of the spleen removed from the mice of Example 1 was measured using a ruler, and the weight was measured using a scale.

IL-17 = test: Immunohistochemical staining of IL-17 expression in IMQ-induced psoriatic skin; details: PLAG 250 mg/kg/day oral day 0 to day 4 with Aldara cream 40 mg/day; back skin
Source text: as §1, §2
as §3, with “sacrificed. […]” for “sacrificed.”

[3] = test system: psoriasis-induced mouse models (IMQ); test: Keratinization and thickness of back skin of IMQ-induced psoriasis mice; details: vs psoriasis-induced group
Source text: as §1
Mice were randomly divided into three groups: control group, psoriasis-induced group, and PLAG group. As the IMQ, Aldara cream (3M Health Care Limited, UK) containing 5% of IMQ was used. […]
In order to investigate whether PLAG prevents the progression of psoriasis, psoriasis was induced using IMQ cream (Aldara cream) as in Example 1. […] Subsequently, for the measurement of thickness of back skin, the back skin was removed, and the thickness of the removed back skin was measured using a caliper. The thickness of the measured back skin is shown in the graph of FIG. 3(B).

[4] = test system: neutrophil recruitment in the back skin; test: Immunohistochemical staining of neutrophil recruitment in back skin; details: PLAG 250 mg/kg/day oral day 0 to day 4 with Aldara cream 40 mg/day
Source text: as §1, §2
as §3, with “sacrificed. […]” for “sacrificed.”

## CCCCC/C=C\C/C=C\CCCCCCCC(=O)OC(COC(C)=O)COC(=O)CCCCCCCCCCCCCCC (racemic) [PLAG, 1-palmitoyl-2-linoleoyl-3-acetyl-rac-glycerol]
[1]
  hair follicles (H&E): present as in the control group
  neutrophils between the stratum corneum (H&E): not found
[1]; vs psoriasis-induced group
  thicknesses of the stratum corneum and the epidermis (H&E): remarkably reduced
[2]; ruler
  size of spleen: increased compared to the control group
[2]; scale
  weight of spleen: maintained the same as the weight of spleen of the control group
IL-17
  IL-17 expression in the skin blood vessels (immunohistochemistry): significantly inhibited
[3]; PLAG 250 mg/kg/day oral day 0 to day 4 with Aldara cream 40 mg/day, day 5
  thickness of the back skin (caliper): significantly decreased
[3]; PLAG 250 mg/kg/day oral day 0 to day 4 with Aldara cream (5% IMQ) 40 mg/day, photographed day 5
  keratosis on the back of the mice: remarkably alleviated
[4]
  level of neutrophil recruitment in back skin (NIMP-R14 immunohistochemistry): significantly lower than that in the psoriasis-induced group
